Laboratory results: paper PMC7737769, “Pharmacological inhibition of syntenin PDZ2 domain impairs breast cancer cell activities and exosome loading with syndecan and EpCAM cargo” (Journal of Extracellular Vesicles, 2020)

Tests used:
GRASP55‐JAM‐B complex = tested on: T1, GRASP55‐JAM‐B complex; assay: HTRF assay, GRASP55-JAM-B interaction; type: biochemical, human
T1 construct: Human GRASP55 tandem PDZ; made in house; host or cells: E. coli BL21 (DE3)
Procedure: (§1) HTRF assays were performed in white 96Well Small VolumeHiBase Polystyrene Microplates (Greiner) with a total working volume of […], as described previously (Milhas et al., 2016). Briefly, compounds were firstly dispensed into the wells at 400 µM for the primary screen or with serial DMSO dilutions for IC50 measurement assays. Primary screening assays have been performed in monoplicate while IC50 measurements were performed in triplicates. All HTRF reagents were purchased from CisBio Bioassays and reconstituted according to the supplier protocols. The plates were spun for 3 min at 500 × g and then incubated at 4°C for 16 h. The HTRF signals were recorded on a POLAR star Omega plate reader (BMG Labtech) with an excitation filter at 337 nm and fluorescence wavelength measurement at 620 and 665 nm, an integration delay of 60 µs and an integration time of 400 µs. Results were analysed with a two‐wavelength signal ratio: [intensity (665 nm)/intensity (620 nm)] × 10^4. Percentage of inhibition was calculated using the following equation: % inhibition = [(compound signal)–(min signal)]/[(max signal)–(min signal)] × 100, where ‘max signal’ is the signal ratio with the compound vehicle alone (DMSO) and ‘min signal’ the signal ratio without protein B. For IC50 measurements, values were normalized and fitted with Prism (GraphPad software) using the following equation: Y = 100/(1+((X/ IC50)ˆHill slope)).
(§2) The search strategy for PDZ2 syntenin inhibitors was based on the PDZ targeted library developed from Enamine compound collection. The PDZ targeted library was developed to cover virtually all PDZ domains. Consequently, to create the syntenin PDZ2 focused library we used two independent paths: docking of the PDZ targeted library against structures of syntenin PDZ2 available in Protein Data Bank and a random selection from the PDZ targeted library. The docking has produced 21 virtual hits, which were added to 118 randomly selected compounds (10% of the pan PDZ library). The resultant set of 139 compounds, syntenin PDZ library was subjected to experimental validation. The primary screen was performed at 400µM using a previously validated Homogeneous Time Resolved Fluorescence (HTRF) assay (Milhas et al., 2016). HTRF is based on Fluorescence Resonance Energy Transfer (FRET) between two fluorescent reagents. In the present case, Anti‐GST‐Terbium antibody and streptavidin‐bound Dynamic2 were used as donor and acceptor respectively. Interactions between GST PDZ‐fusion proteins and biotinylated peptides containing PDZ binding motifs were challenged with the potential inhibitors. In parallel, control experiments were performed with a biotinylated‐GST to verify that compounds were not interfering with the FRET signal in a non‐specific manner. To identify inhibitors of syntenin PDZ interactions, we tested for the effect of the 139 compounds on syntenin‐SDC2 and syntenin‐Frizzled7 complexes (Figure 1a; Table S1). When the HTRF signal dropped below 0.9, inhibition was considered as effective. […] Noteworthy, these compounds had no effect on other PDZ complexes like GRASP55‐JAM‐B or GRASP55‐JAM‐C and Erbin‐Erbb2 or Erbin‐P0071 (Figure 1c).

MCF‐7 SyntKO cells = assay: Cancer cell viability (Annexin V/7-AAD flow cytometry), MCF-7 SyntKO; type: cell-based; conditions: concentrations up to 100 µM, 48 h
Procedure: The effects of the compounds C58 and SyntOFF were tested both on MCF‐7 and MCF‐7 SyntKO cells. Briefly, the cells were treated with increasing concentrations of the compounds for 48 h and early/late apoptosis was measured by using the FITC Annexin V apoptosis detection kit with 7‐AAD (Biolegend, San Diego, CA, USA) according to the manufacturer. Annexin V positive but 7‐AAD negative (early apoptotic cells) and Annexin V positive and 7‐AAD positive (late stage apoptosis) was determined by using FACS LSRII flow cytometer (BD Biosciences) and data were analysed with Flowjo software (Tree Star).

[1] = tested on: T2, syntenin‐Frizzled7 complex (GST-SyntFL / FZD7 peptide); assay: HTRF assay, syntenin-Frizzled 7 interaction; type: biochemical, human
T2 construct: residues 1–298 or syntenin full‐length (FL) for HTRF assays; made in house; host or cells: E. coli ER2566
Procedure: as §1, §2

GRASP55‐PDZ tandem = tested on: T3, GRASP55‐PDZ tandem; assay: Surface plasmon resonance (BIAcore), GRASP55 PDZ tandem; type: binding, human; conditions: 50µM ‐1000 µM
T3 construct: made in house; host or cells: Biotin XCell F' E. coli cells
Procedure: All SPR experiments were conducted with a BIAcore T200 instrument (GE Healthcare), at 25°C. A total of 8000 resonance units (RU) of biotinylated ligands (N‐terminal 6xHis tagged biotinylated syntenin tandem, syntenin tandem with C terminus, GRASP55 tandem or GST as control) were immobilized on a streptavidin‐sensor chip (GE Healthcare). Analytes (C58 and SyntOFF compounds) were perfused at 30 µl per min in running buffer (10 mM HEPES pH 7.4, 150 mM NaCl, 0.005% Tween20) at different concentrations. The reference channel was N‐terminal 6xHis tagged biotinylated GST protein. The injection time was 240 s, long enough for the sensorgrams to reach equilibrium, and the dissociation time was 240 s. To carry out these SPR experiments, we employed the method known as ‘single‐cycle kinetics’ described in 2006 by Karlsson and co‐workers (Karlsson, Katsamba, Nordin, Pol, & Myszka, 2006). It consists in injecting the analyte at increasing concentrations, without regeneration steps between each sample injection to avoid that folded‐proteins can be damaged after regeneration steps. Equilibrium dissociation constants (KD) were calculated by fitting the data to a simple Langmuir binding isotherm using GraphPad Prism. For determination of the apparent KD, signals obtained at equilibrium were plotted as a function of compound concentration. […]

Erbin‐P0071 complex = tested on: T4, Erbin‐P0071 complex; assay: HTRF assay, Erbin-P0071 interaction; type: biochemical, human
T4 construct: human Erbin PDZ domain; made in house; host or cells: E. coli BL21 (DE3)
Procedure: as §1, §2

biotinylated‐GST = assay: HTRF control with biotinylated-GST (non-specific interference with FRET signal)
Procedure: as §1, §2

Compound | GST-GRASP JAM-B (signal ratio) (GRASP55‐JAM‐B complex; 400µM compound, Figure 1c) | toxicity (cell viability) (MCF‐7 SyntKO cells) | GST SyntFL Frizzled 7 (signal ratio) ([1]; 400µM compound, Figure 1c) | HTRF ASSAY GST-SyntFL FZD7 (HTRF signal ratio) ([1]; primary screen, 400 µM compound, signal below 0.9 considered effective inhibition, Table S1) | binding to GRASP55‐PDZ tandem (GRASP55‐PDZ tandem) | GST-Erbin P0071 (signal ratio) (Erbin‐P0071 complex; 400µM compound, Figure 1c) | GST-biot (signal ratio) (biotinylated‐GST; 400µM compound, Figure 1c) | effect on control (biotinylated‐GST) FRET signals (biotinylated‐GST; HTRF primary screen, 400µM) | HTRF ASSAY GST-biot (HTRF signal ratio, control) (biotinylated‐GST; primary screen, 400 µM compound, Table S1) | effect on GRASP55‐JAM‐B complex (GRASP55‐JAM‐B complex; HTRF dose-response, Figure S2b) | effect on Erbin‐P0071 complex (Erbin‐P0071 complex; HTRF dose-response, Figure S2a)
CC(C)[C@H](NC(=O)CSc1ccc(Cl)cc1)C(=O)O [Compound C58] | 1.1 | not toxic | 0.38 | 0.39 | no binding | 1 | 0.92 | no significant effect | 1.01 |  | 
CC(C)[C@H](NC(=O)CCSc1ccc(Cl)cc1)C(=O)O [SyntOFF, (S)‐2‐(3‐(4‐chlorophenylthio)propanamido)‐3‐methylbutanoic acid] |  |  |  |  |  |  |  |  |  | not affecting | not affecting
